One experiment has as its target T1, human JAK2 (Homo sapiens, UniProt O60674).
T1 construct: The kinase domain of human JAK2 was amplified; GST (N); made in house; host or cells: Sf9 insect cells (baculovirus)
The experiment is described as follows: Alphascreen tyrosine kinase enzyme assay, JAK2 kinase domain. The experiment is classed as biochemical. The note with it: read-out: JAK2 IC50_nM. As to the method:
For screening purposes, compounds (in 100% DMSO) were warmed at 37 degrees for at least 20 minutes before use. A […] stock was initially made in assay buffer, where the final concentration of DMSO was 0.3%. The stocks were then diluted in 384 well Optiplates (Packard) where the final concentration of the compound was […].
The kinase domain of human JAK2 was amplified from U937mRNA using the polymerase chain reaction with the following primers: […]
The JAK2 PCR products were cloned into the pDest20 destination vector (Gibco). The JAK2 plasmid was then transformed into competent DH10Bac cells (Gibco), and the recombinant baculovirus was prepared via Sf9 insect cell transfection.
Baculovirus preparations from each of the constructs were infected into either one or five liters of Sf9 cells (Invitrogen) grown in SF-900 medium (Invitrogen) to a cell density of approximately 1-2×10^6 cells/ml. Cells were infected with virus at a MOI of 0.8-3.0. Cells were harvested and lysed. Tyrosine kinase domains were purified by affinity chromatography on a glutathione-agarose column (Scientifix Pty. Ltd. catalog #: GSH-200).
Kinase assays were performed in 384 well Optiplates (Packard) using an Alphascreen Protein Tyrosine Kinase PY100 detection kit The compounds were pre-incubated with affinity purified PTK domain in the presence of phosphotyrosine assay buffer (10 mM HEPES, pH 7.5, 100 mM MgCl2, 25 mM NaCl, […] and 0.1% Tween 20) for 20 minutes. The compounds were then incubated with substrate in the presence of ATP. The substrate used was susbtrate-1 with the sequence biotin-EGPWLEEEEEAYGWMDF-NH2 [SEQ. ID. NO. 13] (final concentration […]). For HCK 80 μm ATP was used and incubated for 60 minutes. Alphascreen phosphotyrosine acceptor beads followed by streptavidin donor beads at a concentration of 1/100 in stop buffer were added to each well under subdued light and incubated for 2-3 hours., The Alphascreen plates were read on a Packard Fusion Alpha instrument.

The target in experiment [1] is T2, BaF3 TELJAK2 cells (BafT_J2) (Homo sapiens, UniProt O60674).
T2 construct: fused on or other part: TEL (ETV6) N-terminal part, coding nucleotides 1-487, serves as the oligomerising partner; It is fused through a Sal I site to the JAK2 kinase domain and expressed from pTRE2 in BaF3 cells bearing pTET-off; P41212 (Transcription factor ETV6)
Put plainly: Cellular screening, BaF3 TEL:JAK2 cells, Alamar Blue. The experiment is classed as cell-based. The note with it: 40 hr, read-out: BafT_J2 IC50_nM. As to the method: For screening purposes, compounds were diluted in 96 well plates at a concentration of 20 μM. Plates were warmed at 37° C. for 30 minutes before the assay was performed.
The coding region encompassing nucleotides 1-487 of TEL was amplified by PCR using the oligonucleotides STEL (5′-GGAGGATCCTGATCTCTCTCGCTGTGAGAC-3′) [SEQ ID NO 14] and 3TEL (5′-AGGC GTCGACTTCTTCTTCATGGTTCTG-3′) [SEQ ID NO 15] and U937 mRNA as a template. A […] restriction site was incorporated into the STEL primer, and a Sal I restriction site was incorporated into the 3TEL primer. The regions encompassing the kinase domain of JAK2 (nucleotides 2994-3914; JAK2F 5′-ACGC GTCGACGGTGCCTTTGAAGACCGGGAT-3′ [SEQ ID NO 16]; JAK2R 5′-ATAGTTTAGCGGCCGCTCAGAATGAAGGTCATTT-3′) [SEQ ID NO 17] and JAK3 (nucleotides 2520-3469; JAK3F 5′-GAAGTCGACTATGCCTGCCAAGACCCCACGATCTT-3′) [SEQ ID NO 18] were generated by PCR using Taq DNA polymerase (Gibco/BRL) and […] as a template. A Sal I restriction site was incorporated into the forward primer of JAK2 and JAK3, a Not I site was incorporated into the JAK2 reverse primer and a Xba I site was added to the reverse primer of JAK3.
A TEL/Jak2 fusion was generated by digestion of the TELPCR product with BamH I/Sal I restriction enzymes, digestion of the JAK2 PCR product with Sal I/Not I restriction enzymes, followed by ligation and subcloning of the ligation product into the mammalian expression Vector pTRE 2 (Clontech), which was prepared by digestion with BamH I-Not I restriction enzymes, to give the TEL/Jak2 fusion plasmid pTELJAK2.
The growth factor dependant myelomonocytic cell line BaF3 bearing the pTET-off plasmid (Clontech) was transfected with either pTELJAK2 or pTELJAK3, and the transfected cells were selected for growth-factor independent cell growth. The BaF3 wild-type cells were cultured in DMEM containing 10% FCS, 10% WEHI 3B conditioned medium. The BaF3 TELJAK cells ([…]) were cultured in DMEM 10% Tet-System Approved FBS (without WEHI 3B conditioned medium).
Cell suspensions were prepared by harvesting cells from culture (the cells used in this test were in late log phase growth with high viability.) Cells were diluted in the appropriate growth medium, as described above, to 1.1× final concentration (from 50,000 cell/mL to 200,000 cell/mL, depending on cell line).
Compounds to be tested were added (10 μL, 10× final concentration) to a flat bottomed 96-well plate. The cellular suspension (90 μL per well) was then added, and the plate incubated for 40 hr at 37° C., 5% CO2. Alamar Blue 10 μL per well was added and the plates returned to the incubator for a further 4-6 hours. The plates were then read at 544 nm.

For 23 compounds, IC50 and GI50 results are on record in US8846704B2, “Thiopyrimidine-based compounds and uses thereof” (YM Biosciences Austraila Pty Ltd, priority 2007, dated 2014).

T2 sequence (O60674 whole entry, change not shown, the tested form may be a part): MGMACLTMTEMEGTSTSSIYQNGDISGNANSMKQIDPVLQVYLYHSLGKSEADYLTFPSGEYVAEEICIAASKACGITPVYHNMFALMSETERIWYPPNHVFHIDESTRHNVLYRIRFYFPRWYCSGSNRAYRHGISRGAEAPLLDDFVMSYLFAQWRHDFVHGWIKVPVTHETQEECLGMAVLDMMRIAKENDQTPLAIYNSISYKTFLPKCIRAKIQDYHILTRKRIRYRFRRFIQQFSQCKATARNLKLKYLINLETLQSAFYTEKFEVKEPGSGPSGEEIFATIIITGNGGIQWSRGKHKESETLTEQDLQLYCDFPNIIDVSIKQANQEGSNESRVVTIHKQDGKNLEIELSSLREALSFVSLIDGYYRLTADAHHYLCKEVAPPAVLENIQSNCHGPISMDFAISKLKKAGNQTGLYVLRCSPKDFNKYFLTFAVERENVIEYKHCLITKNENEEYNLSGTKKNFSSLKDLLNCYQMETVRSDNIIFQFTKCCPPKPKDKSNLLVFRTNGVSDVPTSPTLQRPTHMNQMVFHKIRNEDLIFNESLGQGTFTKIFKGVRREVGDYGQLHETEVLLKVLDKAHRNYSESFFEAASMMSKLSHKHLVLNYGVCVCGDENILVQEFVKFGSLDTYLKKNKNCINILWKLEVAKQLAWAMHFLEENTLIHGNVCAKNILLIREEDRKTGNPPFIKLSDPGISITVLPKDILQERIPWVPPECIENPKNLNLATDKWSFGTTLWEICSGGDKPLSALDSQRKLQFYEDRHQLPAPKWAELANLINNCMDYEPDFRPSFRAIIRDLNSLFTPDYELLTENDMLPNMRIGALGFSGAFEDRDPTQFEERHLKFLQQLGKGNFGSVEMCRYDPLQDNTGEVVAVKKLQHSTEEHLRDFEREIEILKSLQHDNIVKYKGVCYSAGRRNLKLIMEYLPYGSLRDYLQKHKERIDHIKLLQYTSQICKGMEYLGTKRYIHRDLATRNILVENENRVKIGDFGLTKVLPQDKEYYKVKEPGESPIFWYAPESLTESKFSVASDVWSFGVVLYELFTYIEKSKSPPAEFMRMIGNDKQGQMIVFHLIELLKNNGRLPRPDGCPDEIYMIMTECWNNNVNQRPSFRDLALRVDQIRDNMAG
T1 sequence (O60674 849-1124 limits assumed): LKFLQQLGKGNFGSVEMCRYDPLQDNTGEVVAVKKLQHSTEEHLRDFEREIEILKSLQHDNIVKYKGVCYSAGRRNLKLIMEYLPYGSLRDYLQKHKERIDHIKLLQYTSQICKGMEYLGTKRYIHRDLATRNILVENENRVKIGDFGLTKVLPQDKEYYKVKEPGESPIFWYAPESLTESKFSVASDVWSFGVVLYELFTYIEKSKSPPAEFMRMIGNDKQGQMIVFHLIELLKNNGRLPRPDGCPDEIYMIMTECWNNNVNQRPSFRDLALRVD

As to `C=CC(=O)Nc1cccc(Nc2nccc(Sc3ccccn3)n2)c1` [Compound 2, N-(3-(4-(pyridin-2-ylthio)pyrimidin-2-ylamino)phenyl)acrylamide], on human JAK2, the IC50 was over 1000 nM. Besides, the GI50 in experiment [1] is under 5000 nM.
In the case of `CC#CC(=O)Nc1cccc(Nc2nccc(SC)n2)c1` [Compound 8, N-(3-(4-(methylthio)pyrimidin-2-ylao)phenyl)but-2-ynamide], on human JAK2, the IC50 was over 1000 nM. In experiment [1], the GI50 was under 5000 nM.
Taken in the same sequence, the figures for `C=CC(=O)Nc1ccc(Nc2nccc(SC)n2)cc1` [Compound 13, N-(4-(4-(methylthio)pyrimidin-2-ylao)phenyl)acrylamide] were over 1000 nM and under 20000 nM.
Taken in the same sequence, the figures for `C=CC(=O)Nc1cccc(Nc2nccc(Sc3ccccc3)n2)c1` [Compound 16, N-(3-(4-(phenylthio)pyrimidin-2-ylamino)phenyl)acrylamide] were over 1000 nM and under 5000 nM.
In the same order, the values of `C=CC(=O)Nc1cccc(Sc2ccnc(Nc3ccc(N4CCOCC4)cc3)n2)c1` [Compound 23, N-(3-(2-(4-morpholinophenylamino)pyrimidin-4-ylthio)phenyl)acrylamide] are over 1000 nM and under 20000 nM.
On to `N#CCC(=O)Nc1cccc(Sc2ccnc(Nc3ccc(N4CCOCC4)cc3)n2)c1` [Compound 24, N-(3-(2-(4-morpholinophenylamino)pyrimidin-4-ylthio)phenyl)-2-cyanoacetamide], for which the IC50 at human JAK2 was under 500 nM. Moreover, in experiment [1], the GI50 is under 20000 nM.
In the same order, the values of `C=CC(=O)Nc1ccc(Sc2ccnc(Nc3ccc(N4CCOCC4)cc3)n2)cc1` [Compound 25, N-(4-(2-(4-morpholinophenylamino)pyrimidin-4-ylthio)phenyl)acrylamide] are over 1000 nM and over 20000 nM.
As to `Nc1ccc(Sc2ccnc(Nc3ccc(N4CCOCC4)cc3)n2)cc1` [Compound 27, 4-(4-aophenylthio)-N-(4-morpholinophenyl)pyrimidin-2-ae], the IC50 on human JAK2 is under 500 nM. For the same compound, the GI50 in experiment [1] is over 20000 nM.
Taken in the same sequence, the figures for `C=CC(=O)Nc1cccc(Nc2nccc(Sc3ccc(OC)cc3)n2)c1` [Compound 42, N-(3-(4-(4-methoxyphenylthio)pyrimidin-2-ylao)phenyl)acrylamide] were over 1000 nM and under 20000 nM.
Taken in the same sequence, the figures for `OCc1cccc(Sc2ccnc(Nc3ccc(N4CCOCC4)cc3)n2)c1` [Compound 62, (3-(2-(4-Morpholinophenylamino)pyrimidin-4-ylthio)phenyl)methanol] were under 500 nM and under 20000 nM.
Turning to `OCc1ccc(Sc2ccnc(Nc3ccc(N4CCOCC4)cc3)n2)cc1` [Compound 67, (4-(2-(4-morpholinophenylao)pyrimidin-4-ylthio)phenyl)methanol], the IC50 on human JAK2 is under 500 nM. In addition, in experiment [1], the GI50 is under 20000 nM.
Turning to `N#CCNCc1cccc(Sc2ccnc(Nc3ccc(N4CCOCC4)cc3)n2)c1` [Compound 68, 2-(3-(2-(4-morpholinophenylao)pyrimidin-4-ylthio)benzylao)acetonitrile], on human JAK2, the IC50 was under 100 nM. The GI50 in experiment [1] was under 20000 nM.
On to `NCc1cccc(Sc2ccnc(Nc3ccc(N4CCOCC4)cc3)n2)c1` [Compound 75, 4-(3-(aomethyl)phenylthio)-N-(4-morpholinophenyl)pyrimidin-2-ae], for which the IC50 at human JAK2 is under 1000 nM. The GI50 in experiment [1] was under 20000 nM.
As for `C=CC(=O)Nc1ccc(Sc2ccnc(Nc3cccc(N4CCOCC4)c3)n2)cc1` [Compound 77, N-(4-(2-(3-morpholinophenylao)pyrimidin-4-ylthio)phenyl)acrylamide], the IC50 on human JAK2 is over 1000 nM. The GI50 in experiment [1] was under 5000 nM.
Taken in the same sequence, the figures for `C=CC(=O)Nc1ccc(Sc2ccnc(Nc3cc(C)cc(C)c3)n2)cc1` [Compound 82, N-(4-(2-(3,5-dimethylphenylao)pyrimidin-4-ylthio)phenyl)acrylamide] were over 1000 nM and under 5000 nM.
In the same order, the values of `c1cc(Sc2ccc(Cn3cnnn3)cc2)nc(Nc2ccc(N3CCOCC3)cc2)n1` [Compound 109, 4-(4-((1H-tetrazol-1-yl)methyl)phenylthio)-N-(4-morpholinophenyl)pyrimidin-2-ae] are under 1000 nM and under 20000 nM.
Taken in the same sequence, the figures for `C=CC(=O)Nc1cccc(Sc2ccnc(Nc3cccc(N4CCOCC4)c3)n2)c1` [Compound 110, N-(3-(2-(3-morpholinophenylao)pyrimidin-4-ylthio)phenyl)acrylamide] were over 1000 nM and under 20000 nM.
Regarding `C=CC(=O)NCc1ccc(Sc2ccnc(Nc3ccc(N4CCOCC4)cc3)n2)cc1` [Compound 111, N-(4-(2-(4-morpholinophenylamino)pyrimidin-4-ylthio)benzyl)acrylamide], the IC50 at human JAK2 is over 1000 nM. In addition, the GI50 in experiment [1] is under 20000 nM.
In the same order, the values of `C=CC(=O)NCc1cccc(Sc2ccnc(Nc3ccc(N4CCOCC4)cc3)n2)c1` [Compound 112, N-(3-(2-(4-morpholinophenylamino)pyrimidin-4-ylthio)benzyl)acrylamide] are over 1000 nM and under 20000 nM.
In the same order, the values of `C=CC(=O)Nc1ccc(Sc2ccnc(Nc3ccc(N4CCOCC4)cc3)n2)cc1OC` [Compound 123, N-(2-methoxy-4-(2-(4-morpholinophenylao)pyrimidin-4-ylthio)phenyl)acrylamide] are over 1000 nM and under 5000 nM.
Taken in the same sequence, the figures for `N#Cc1nnnn1Cc1ccc(Sc2ccnc(Nc3ccc(N4CCOCC4)cc3)n2)cc1` [Compound 155, 1-(4-(2-(4-morpholinophenylao)pyrimidin-4-ylthio)benzyl)-1H-tetrazole-5-carbonitrile] were over 1000 nM and under 20000 nM.
Take `N#Cc1nnn(Cc2ccc(Sc3ccnc(Nc4ccc(N5CCOCC5)cc4)n3)cc2)n1` [Compound 156, 2-(4-(2-(4-morpholinophenylao)pyrimidin-4-ylthio)benzyl)-2H-tetrazole-5-carbonitrile]: the IC50 at human JAK2 is over 1000 nM. Also, the GI50 in experiment [1] was under 5000 nM.
With `Cc1cc(N)ccc1Sc1nc(Nc2ccc(N3CCOCC3)cc2)ncc1C` [Compound 162, 4-(4-ao-2-methylphenylthio)-5-methyl-N-(4-morpholinophenyl)pyrimidin-2-ae], the IC50 on human JAK2 was under 1000 nM. The GI50 in experiment [1] is under 20000 nM.
